The subject of this assay is HT-29 cells. The assay is described as follows: Cell necrosis inhibitory activity under necroptosis-inducing conditions (TNF-α, Z-VAD-FMK, LCL161) in HT-29 cells, Cell Titer-Glo. The settings on record: Homo sapiens, 100 ng/mL TNF-α + 25 μM Z-VAD-FMK + Smac mimetic LCL161, 24 hours, cell viability. It is filed as cell-based. As to the method: To evaluate the cell necrosis inhibitory activity of the compound according to the present invention, an experiment was conducted as follows.
To evaluate the efficacy of inhibiting cell necrosis under TNF-α-mediated cell death-inducing conditions, a HT-29 cell line (Korean Cell Line Bank Accession No. #30038) was cultured in RPMI-1640 (HyClone #SH3027.01) medium containing 10% fetal bovine serum (FBS) and 1% penicillin/streptomycin to analyze cell viability. More specifically, for testing, the cell line was seeded in a 96-well flat bottom plate (Corning #3903) at a concentration of 10,000 cells/well and incubated at 37° C. under a 5% CO2 condition for 24 hours. Each well was treated with 100 ng/mL TNF-α, 25 μM pan-caspase inhibitor (Z-VAD-FMK, Selleckchem #S8102), and 10 µM Smac mimetic LCL161 (Selleckchem #S7009) and allowed to react for 10 minutes. The compounds of Examples were treated at 11 concentrations (the highest concentration being 0.1 μM or 1 μM) with a 3-fold concentration gradient, and as a control, dimethyl sulfoxide (DMSO) was treated at a concentration of 0.05% (v/v), which is the same as those when the compounds were treated. The treated cells were incubated for 24 hours. To confirm the degree of cell viability, 100 μL of Cell Titer-Glo (Promega #G7573) was added to the medium of the cultured cells and cultured for additional 10 minutes, and then luminescence was measured using a microplate reader. Based on the […] of control cells that were not treated with the compound, the degree of cell necrosis inhibitory activity was calculated according to the treatment concentration of each compound. Here, the concentration at which the cell necrosis inhibitory activity was 50% was determined as an EC50 (nM) value and calculated using Prism (ver. 8.4.3 #GraphPad) software.
In general terms: In ATP-based viability assays light output follows the ATP content of the culture.

The term EC50 denotes the concentration giving half of the maximal effect. Regarding `Cc1ncc(-c2ccc3nc(N)nn3c2)cc1NC(=O)N1OCC[C@H]1c1ccc(F)cc1` [Example 56, (S)-N-(5-(2-amino-[1,2,4]triazolo[1,5-a]pyridin-6-yl)-2-methylpyridin-3-yl)-3-(4-fluorophenyl)isoxazolidine-2-carboxamide], the EC50 is 0.7 nM.

Regarding `COc1ncc(-c2ccc3nc(N)nn3c2)cc1NC(=O)N1OCC[C@H]1c1cc(F)cc(F)c1` [Example 57, (S)-N-(5-(2-amino-[1,2,4]triazolo[1,5-a]pyridin-6-yl)-2-methoxypyridin-3-yl)-3-(3,5-difluorophenyl)isoxazolidine-2-carboxamide], the EC50 worked out at 4.4 nM.

Regarding `COc1ncc(-c2ccc3nc(N)nn3c2)cc1NC(=O)N1OCC[C@H]1c1cccc(F)c1` [Example 58, (S)-N-(5-(2-amino-[1,2,4]triazolo[1,5-a]pyridin-6-yl)-2-methoxypyridin-3-yl)-3-(3-fluorophenyl)isoxazolidine-2-carboxamide], the EC50 is 3.9 nM.

Consider `Cc1ccc(-c2ccc3nc(N)nn3c2)cc1NC(=O)N1OCC[C@H]1c1cc(F)cc(F)c1` [Example 59, (S)-N-(5-(2-amino-[1,2,4]triazolo[1,5-a]pyridin-6-yl)-2-methylphenyl)-3-(3,5-difluorophenyl)isoxazolidine-2-carboxamide], for which the EC50 was determined as 0.7 nM.

Consider `Cc1ccc(-c2ccc3nc(N)nn3c2)cc1NC(=O)N1OCC[C@H]1c1cccc(F)c1` [Example 60, (S)-N-(5-(2-amino-[1,2,4]triazolo[1,5-a]pyridin-6-yl)-2-methylphenyl)-3-(3-fluorophenyl)isoxazolidine-2-carboxamide], for which the EC50 turned out to be 0.4 nM.

Take `Cc1ccc(-c2ccn3nc(N)nc3c2)cc1NC(=O)N1OCC[C@H]1c1ccccc1` [Example 61, (S)-N-(5-(2-amino-[1,2,4]triazolo[1,5-a]pyridin-7-yl)-2-methylphenyl)-3-phenylisoxazolidine-2-carboxamide]: the EC50 stood at 0.2 nM.

Consider `Cc1ccc(-c2ccn3nc(N)nc3c2)cc1NC(=O)N1OCC[C@H]1c1cccc(F)c1` [Example 62, (S)-N-(5-(2-amino-[1,2,4]triazolo[1,5-a]pyridin-7-yl)-2-methylphenyl)-3-(3-fluorophenyl)isoxazolidine-2-carboxamide], for which the EC50 turned out to be 0.2 nM.

Consider `Cc1ccc(-c2ccn3nc(N)nc3c2)cc1NC(=O)N1OCC[C@H]1c1cc(F)cc(F)c1` [Example 63, (S)-N-(5-(2-amino-[1,2,4]triazolo[1,5-a]pyridin-7-yl)-2-methylphenyl)-3-(3,5-difluorophenyl)isoxazolidine-2-carboxamide], for which the EC50 came to 0.2 nM.

As to `Cc1ccc(-c2ccn3nc(N)nc3c2)cc1NC(=O)N1OCC[C@H]1c1ccc(F)cc1` [Example 64, (S)-N-(5-(2-amino-[1,2,4]triazolo[1,5-a]pyridin-7-yl)-2-methylphenyl)-3-(4-fluorophenyl)isoxazolidine-2-carboxamide], the EC50 was 0.2 nM.

As to `Cc1ccc(-c2ccn3nc(N)nc3c2)cc1NC(=O)N1OCC[C@H]1c1ccc(Cl)cc1` [Example 65, (S)-N-(5-(2-amino-[1,2,4]triazolo[1,5-a]pyridin-7-yl)-2-methylphenyl)-3-(4-chlorophenyl)isoxazolidine-2-carboxamide], the EC50 came out at 0.2 nM.

As for `Cc1ccc(-c2ccc3nc(N)nn3c2)cc1NC(=O)N1OCC[C@H]1c1ccc(F)cc1` [Example 66, (S)-N-(5-(2-amino-[1,2,4]triazolo[1,5-a]pyridin-6-yl)-2-methylphenyl)-3-(4-fluorophenyl)isoxazolidine-2-carboxamide], the EC50 is 0.4 nM.

As for `Cc1ccc(-c2ccc3nc(N)nn3c2)cc1NC(=O)N1OCC[C@H]1c1ccc(Cl)cc1` [Example 67, (S)-N-(5-(2-amino-[1,2,4]triazolo[1,5-a]pyridin-6-yl)-2-methylphenyl)-3-(4-chlorophenyl)isoxazolidine-2-carboxamide], the half-maximal effective concentration (EC50) was 0.4 nM.

Turning to `Cc1ncc(-c2ccc3nc(N)nn3c2)cc1NC(=O)N1OCC[C@H]1c1ccc(C#N)cc1` [Example 68, (S)-N-(5-(2-amino-[1,2,4]triazolo[1,5-a]pyridin-6-yl)-2-methylpyridin-3-yl)-3-(4-cyanophenyl)isoxazolidine-2-carboxamide], the EC50 is 3.9 nM.

As for `Cc1ncc(-c2ccc3nc(N)nn3c2)cc1NC(=O)N1OCC[C@H]1c1ccc(Cl)cc1` [Example 69, (S)-N-(5-(2-amino-[1,2,4]triazolo[1,5-a]pyridin-6-yl)-2-methylpyridin-3-yl)-3-(4-chlorophenyl)isoxazolidine-2-carboxamide], the EC50 is 0.4 nM.

As for `Cc1ncc(-c2ccn3nc(N)nc3c2)cc1NC(=O)N1OCC[C@H]1c1ccc(C#N)cc1` [Example 70, (S)-N-(5-(2-amino-[1,2,4]triazolo[1,5-a]pyridin-7-yl)-2-methylpyridin-3-yl)-3-(4-cyanophenyl)isoxazolidine-2-carboxamide], the EC50 turned out to be 5.2 nM.

Consider `Cc1ccc(-c2ccc3nc(N)nn3c2)cc1NC(=O)N1OCC[C@H]1c1ccc(C#N)cc1` [Example 91, (S)-N-(5-(2-amino-[1,2,4]triazolo[1,5-a]pyridin-6-yl)-2-methylphenyl)-3-(4-cyanophenyl)isoxazolidine-2-carboxamide], for which the EC50 was 0.9 nM.

With `Cc1ccc(-c2ccn3nc(N)nc3c2)cc1NC(=O)N1OCC[C@H]1c1ccc(C#N)cc1` [Example 92, (S)-N-(5-(2-amino-[1,2,4]triazolo[1,5-a]pyridin-7-yl)-2-methylphenyl)-3-(4-cyanophenyl)isoxazolidine-2-carboxamide], the EC50 was found to be 0.6 nM.

In the case of `Cc1ccc(-c2ccc3nc(NC(=O)C4CC4)sc3c2)cc1NC(=O)N1OCC[C@H]1c1ccc(C#N)cc1` [Example 93, (S)-3-(4-cyanophenyl)-N-(5-(2-(cyclopropanecarboxamido)benzo[d]thiazol-6-yl)-2-methylphenyl)isoxazolidine-2-carboxamide], the EC50 worked out at 0.2 nM.

With `Cc1ccc(-c2ccc3nc(NC(=O)C4CC4)sc3n2)cc1NC(=O)N1OCC[C@H]1c1ccc(C#N)cc1` [Example 94, (S)-3-(4-cyanophenyl)-N-(5-(2-(cyclopropanecarboxamido)thiazolo[5,4-b]pyridin-5-yl)-2-methylphenyl)isoxazolidine-2-carboxamide], the EC50 was determined as 0.3 nM.

Consider `Cc1ccc(-c2ccc3nc(N)cn3n2)cc1NC(=O)N1OCC[C@H]1c1ccccc1` [Example 95, (S)-N-(5-(2-aminoimidazo[1,2-b]pyridazin-6-yl)-2-methylphenyl)-3-phenylisoxazolidine-2-carboxamide], for which the EC50 is 7.5 nM.

Consider `Nc1nc2ccc(-c3ccc(F)c(NC(=O)N4OCC[C@H]4c4ccccc4)c3)cn2n1` [Example 96, (S)-N-(5-(2-amino-[1,2,4]triazolo[1,5-a]pyridin-6-yl)-2-fluorophenyl)-3-phenylisoxazolidine-2-carboxamide], for which the EC50 was determined as 1.9 nM.

As to `Nc1nc2ccc(-c3ccc(Cl)c(NC(=O)N4OCC[C@H]4c4ccccc4)c3)cn2n1` [Example 97, (S)-N-(5-(2-amino-[1,2,4]triazolo[1,5-a]pyridin-6-yl)-2-chlorophenyl)-3-phenylisoxazolidine-2-carboxamide], the EC50 turned out to be 1.1 nM.

On to `Cc1ccc(-c2ccc3nc(N)sc3n2)cc1NC(=O)N1OCC[C@H]1c1ccccc1` [Example 98, (S)-N-(5-(2-aminothiazolo[5,4-b]pyridin-5-yl)-2-methylphenyl)-3-phenylisoxazolidine-2-carboxamide], for which the EC50 came out at 0.3 nM.

As to `COc1ncc(-c2ccc3c(N)ncnn23)cc1NC(=O)N1OCC[C@H]1c1ccccc1` [Example 99, (S)-N-(5-(4-aminopyrrolo[2,1-f][1,2,4]triazin-7-yl)-2-methoxypyridin-3-yl)-3-phenylisoxazolidine-2-carboxamide], the EC50 came to 8.2 nM.

As to `Cc1ccc(-c2ccc3c(N)ncnn23)cc1NC(=O)N1OCC[C@H]1c1ccccc1` [Example 100, (S)-N-(5-(4-aminopyrrolo[2,1-f][1,2,4]triazin-7-yl)-2-methylphenyl)-3-phenylisoxazolidine-2-carboxamide], the EC50 is 4.6 nM.

Consider `Cc1ccc(-c2ccc3ncnn3c2)cc1NC(=O)N1OCC[C@H]1c1ccccc1` [Example 101, (S)-N-(5-([1,2,4]triazolo[1,5-a]pyridin-6-yl)-2-methylphenyl)-3-phenylisoxazolidine-2-carboxamide], for which the EC50 turned out to be 6.2 nM.

With `Cc1ccc(-c2ccn3ncnc3c2)cc1NC(=O)N1OCC[C@H]1c1ccccc1` [Example 102, (S)-N-(5-([1,2,4]triazolo[1,5-a]pyridin-7-yl)-2-methylphenyl)-3-phenylisoxazolidine-2-carboxamide], the EC50 is 0.9 nM.

For `COc1ccc(-c2ccn3nc(N)nc3c2)c(F)c1NC(=O)N1OCC[C@H]1c1ccccc1` [Example 103, (S)-N-(3-(2-amino-[1,2,4]triazolo[1,5-a]pyridin-7-yl)-2-fluoro-6-methoxyphenyl)-3-phenylisoxazolidine-2-carboxamide], the EC50 came out at 15.6 nM.
